From patent US6982348B2, “Aminoethanol derivatives” (Takeda Pharmaceutical Company Limited, priority 2001, dated 2006)

Columns and labels:
human CETP [1] = molecular target: T1, human CETP (Homo sapiens, UniProt P11597); assay: Assay of cholesteryl ester transfer protein inhibitory activity, standard measurement system; type: biochemical; settings: BODIPY-CE-ME donor, VLDL-LDL acceptor, reaction at 37° C. for 30 min.
T1 sequence (P11597 18-493): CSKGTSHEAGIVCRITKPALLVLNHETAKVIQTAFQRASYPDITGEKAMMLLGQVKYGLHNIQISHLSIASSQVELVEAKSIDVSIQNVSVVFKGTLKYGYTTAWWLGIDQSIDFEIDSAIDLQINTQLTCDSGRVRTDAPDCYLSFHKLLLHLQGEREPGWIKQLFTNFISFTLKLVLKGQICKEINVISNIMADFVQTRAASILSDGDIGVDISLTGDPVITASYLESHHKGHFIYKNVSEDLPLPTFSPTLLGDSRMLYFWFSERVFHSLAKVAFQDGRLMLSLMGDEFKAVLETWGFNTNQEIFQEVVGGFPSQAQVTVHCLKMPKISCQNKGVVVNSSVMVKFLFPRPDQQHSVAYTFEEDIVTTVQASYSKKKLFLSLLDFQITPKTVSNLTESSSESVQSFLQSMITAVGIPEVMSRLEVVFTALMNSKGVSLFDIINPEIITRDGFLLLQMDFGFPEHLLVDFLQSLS
Experimental: (§1) Assay of Cholesteryl Ester Transfer Protein Inhibitory Activity
(§2) Fresh rabbit serum was adjusted with KBr to the density of (1.063 g/ml), and the fractions (VLDL-LDL, density<1.063 g/ml) floated by ultra-centrifugation operation (SW41—Ti, 40,000 rpm, 18 hrs., 4° C., Beckman model L8-55) were collected, subjected to dialysis against 0.15 M NaCl-10 mM Tris-HCl, pH 7.4 (TBS), sterilized by filtration through a filter and preserved at 4° C.
(§3) A solution of BODIPY-CE (0.6 mg) in chloroform was added to egg PC (phosphatidylcholine) ([…]) and triolein (2 mg), and after dissolution, the lipid was air dried under a nitrogen gas reflux and the solvent was removed under high vacuum. To this lipid was added an apo HDL solution (7.5 ml) obtained by defatting human HDL (1.063<d<1.21) with chloroform-methanol (2:1, v/v), dissolving in 6 M urea-containing TBS and dialyzing against TBS, and the mixture was subjected to sonication (BRANSON SONIFIRE CELL DISRUPTOR 200, dial 6, 5 min×4) to give BOBIPY-CE-ME. After centrifugation (CENTRIPREP 10), it was sterilized by filtration through a filter and preserved at 4° C.
(§4) The test compound (20% DMSO solution, 5 μl), TS (75 μl), acceptor lipoprotein (VLDL-LDL, 20 μl) and partially purified human CETP (25 μl) were mixed and incubated at 37° C. for 30 min. BODIPY-CE-ME (25 μl) was added (total 150 μl) and a transfer reaction was started. After reaction at 37° C. for 30 min., fluorescence intensity was measured at Ex. 490 nm/Em. 530 nm. The CETP inhibitory activity (% inhibition) was calculated by the following formula. [formula] 4) 50% Human Plasma-Containing Measurement System
(§5) The IC50 value was determined as a concentration showing 50% inhibition by plotting the logarithm of the concentration of test compound and % inhibition.

human CETP [2] = molecular target: T1, human CETP; assay: Assay of cholesteryl ester transfer protein inhibitory activity, 50% human plasma-containing measurement system; type: biochemical; settings: BODIPY-CE-ME donor, VLDL-LDL acceptor, reaction at 37° C. for 60 min.
Experimental: as §1, §2, §3
as §4, with “5 μl), human plasma (75 μl),” for “5 μl), TS (75 μl),”, “C. for 60 min., fluorescence” for “C. for 30 min., fluorescence”, “formula. [formula]” for “formula. [formula] 4) 50% Human Plasma-Containing Measurement System”
as §5

Row | Compound | IC50 (human CETP [1]) | melting point | IC50 (human CETP [2])
1 | O=C(N[C@H](Cc1ccc(C(F)(F)F)cc1)[C@@H](O)c1ccc(F)cc1)c1cccc2c1C=CCCC2 (racemic) [Example 29, N-[(1RS,2SR)-2-(4-fluorophenyl)-2-hydroxy-1-[4-(trifluoromethyl)benzyl]ethyl]-6,7-dihydro-5H-benzo[a]cycloheptene-1-carboxamide] | 0.12 µM | 197 to 198 °C | –
2 | O=C(N[C@H](Cc1ccc(C(F)(F)F)cc1)[C@@H](O)c1ccc(F)cc1)c1ccc(F)c2ccccc12 (racemic) [Example 30, 4-fluoro-N-((1RS,2SR)-2-(4-fluorophenyl)-2-hydroxy-1-((4-(trifluoromethyl)phenyl)methyl)ethyl)-1-naphthalenecarboxamide] | 0.3 µM | 210 to 211 °C | 2.5 µM
3 | O=C(N[C@H](Cc1cccc(OC(F)(F)C(F)F)c1)[C@@H](O)c1ccc(F)cc1)c1cccc2c1C=CCCC2 (racemic) [Example 122, N-[(1RS,2SR)-2-(4-fluorophenyl)-2-hydroxy-1-[3-(1,1,2,2-tetrafluoroethoxy)benzyl]ethyl]-6,7-dihydro-5H-benzo[a]cycloheptene-1-carboxamide] | 0.015 µM | 176 to 177 °C | 0.49 µM
4 | O=C(N[C@H](Cc1ccc(C(F)(F)F)cc1)[C@@H](O)c1cccc(F)c1)c1cccc2c1C=CCCC2 (racemic) [Example 177, N-((1RS,2SR)-2-(3-fluorophenyl)-2-hydroxy-1-((4-(trifluoromethyl)phenyl)methyl)ethyl)-6,7-dihydro-5H-benzo[a]cycloheptene-1-carboxamide] | 0.091 µM | 151 to 152 °C | –
5 | O=C(N[C@H](Cc1ccc(C(F)(F)F)cc1)[C@@H](O)c1ccc(Oc2ccccc2)cc1)c1cccc2c1C=CCCC2 (racemic) [Example 210, N-((1RS,2SR)-2-hydroxy-2-(4-phenoxyphenyl)-1-((4-(trifluoromethyl)phenyl)methyl)ethyl)-6,7-dihydro-5H-benzo[a]cycloheptene-1-carboxamide] | 0.088 µM | – | 1.4 µM
6 | O=C(N[C@H](Cc1cccc(OC(F)(F)C(F)F)c1)[C@@H](O)c1ccc(Oc2ccccc2)cc1)c1cccc2c1C=CCCC2 (racemic) [Example 217, N-((1RS,2SR)-2-hydroxy-2-(4-(phenyloxy)phenyl)-1-((3-((1,1,2,2-tetrafluoroethyl)oxy)phenyl)methyl)ethyl)-6,7-dihydro-5H-benzo[a]cycloheptene-1-carboxamide] | 0.0084 µM | – | 0.08 µM
7 | O=C(N[C@H](Cc1cccc(OC(F)(F)C(F)F)c1)[C@@H](O)c1cccc(F)n1)c1cccc2c1C=CCCC2 (racemic) [Example 222, N-((1RS,2RS)-2-(6-fluoropyridin-2-yl)-2-hydroxy-1-((3-(1,1,2,2-tetrafluoroethoxy)phenyl)methyl)ethyl)-6,7-dihydro-5H-benzo[a]cycloheptene-1-carboxamide] | 0.079 µM | 151 to 152 °C | –
8 | CC1(C)COc2ccc(C[C@@H](NC(=O)c3cccc4c3C=CCCC4)[C@@H](O)c3cccc(Cl)c3)cc21 (racemic) [Example 377, N-{(1RS,2SR)-2-(3-chlorophenyl)-1-[(3,3-dimethyl-2,3-dihydro-1-benzofuran-5-yl)methyl]-2-hydroxyethyl}-6,7-dihydro-5H-benzo[a]cycloheptene-1-carboxamide] | – | 149 to 150 °C | –
9 | CC1(C)COc2ccc(C[C@@H](NC(=O)c3cccc4c(Cl)cccc34)[C@@H](O)c3cccc(Cl)c3)cc21 (racemic) [Example 378, 5-chloro-N-{(1RS,2SR)-2-(3-chlorophenyl)-1-[(3,3-dimethyl-2,3-dihydro-1-benzofuran-5-yl)methyl]-2-hydroxyethyl}-1-naphthamide] | – | 191 to 192 °C | –
10 | CC(C)(C)C(F)(F)c1ccc(C[C@@H](NC(=O)c2ccc(F)c3ccccc23)[C@@H](O)c2cccc(Cl)c2)cc1 (racemic) [Example 379, N-{(1RS,2SR)-2-(3-chlorophenyl)-1-[4-(1,1-difluoro-2,2-dimethylpropyl)benzyl]-2-hydroxyethyl}-4-fluoro-1-naphthamide] | – | 104 to 106 °C | –
11 | CC(C)(C)C(F)(F)c1ccc(C[C@@H](NC(=O)c2cccc3c2C=CCCC3)[C@@H](O)c2cccc(Cl)c2)cc1 (racemic) [Example 380, N-{(1RS,2SR)-2-(3-chlorophenyl)-1-[4-(1,1-difluoro-2,2-dimethylpropyl)benzyl]-2-hydroxyethyl}-6,7-dihydro-5H-benzo[a]cycloheptene-1-carboxamide] | – | 119 to 120 °C | –
12 | CC(C)(C)C(F)(F)c1ccc(C[C@@H](NC(=O)c2cccc3c(Cl)cccc23)[C@@H](O)c2cccc(Cl)c2)cc1 (racemic) [Example 381, 5-chloro-N-{(1RS,2SR)-2-(3-chlorophenyl)-1-[4-(1,1-difluoro-2,2-dimethylpropyl)benzyl]-2-hydroxyethyl}-1-naphthamide] | – | 99 to 101 °C | –
13 | CC(=O)O[C@H](c1ccc(F)cc1)[C@H](Cc1cccc(OC(F)(F)C(F)F)c1)NC(=O)c1cccc2c1C=CCCC2 (racemic) [Example 382, (1RS,2SR)-2-[(6,7-dihydro-5H-benzo[a]cyclohepten-1-ylcarbonyl)amino]-1-(4-fluorophenyl)-3-[3-(1,1,2,2-tetrafluoroethoxy)phenyl]propyl acetate] | – | 176 to 177 °C | –
14 | CC(C)(C)OC(=O)NCC(=O)O[C@H](c1ccc(F)cc1)[C@H](Cc1cccc(OC(F)(F)C(F)F)c1)NC(=O)c1cccc2c1C=CCCC2 (racemic) [Example 386, N-(tert-butoxycarbonyl)glycine (1RS,2SR)-2-[(6,7-dihydro-5H-benzo[a]cyclohepten-1-ylcarbonyl)amino]-1-(4-fluorophenyl)-3-[3-(1,1,2,2-tetrafluoroethoxy)phenyl]propyl ester] | – | 151 to 152 °C | –
15 | CC(C)(C)OC(=O)NCC(=O)O[C@H](c1ccc(F)cc1)[C@H](Cc1cccc(OC(F)(F)C(F)F)c1)NC(=O)c1ccc(F)c2ccccc12 (racemic) [Example 390, N-(tert-butoxycarbonyl)glycine (1RS,2SR)-2-[(4-fluoro-1-naphthoyl)amino]-1-(4-fluorophenyl)-3-[3-(1,1,2,2-tetrafluoroethoxy)phenyl]propyl ester] | – | 126 to 127 °C | –
16 | O=C(NC(Cc1ccc(C(F)(F)F)cc1)C(O)c1ccc(F)cc1)c1cccc2ccccc12 (stereo not drawn) [226(+)-form] | 0.4 µM | – | 4.2 µM
17 | O=C(NC(Cc1ccc(C(F)(F)F)cc1)C(O)c1ccc(F)cc1)c1ccc(F)c2ccccc12 (stereo not drawn) [227(+)-form] | 0.21 µM | – | 1.7 µM
18 | O=C(NC(Cc1cccc(OC(F)(F)C(F)F)c1)C(O)c1ccc(F)cc1)c1ccc(F)c2ccccc12 (stereo not drawn) [228(+)-form] | 0.03 µM | – | 0.99 µM
19 | O=C(NC(Cc1cccc(OC(F)(F)C(F)F)c1)C(O)c1ccc(F)cc1)c1cccc2c1C=CCCC2 (stereo not drawn) [229(+)-form] | 0.0086 µM | – | 0.24 µM
20 | O=C(N[C@@H](Cc1ccc(C(F)(F)F)cc1)[C@H](O)c1ccc(F)cc1)c1ccc(C(F)F)c2ccccc12 [Example 64, 4-(difluoromethyl)-N-((1S,2R)-2-(4-fluorophenyl)-2-hydroxy-1-((4-(trifluoromethyl)phenyl)methyl)ethyl)-1-naphthalenecarboxamide] | – | 212 to 213 °C | –
